Measurements from patent US20110152176A1, “AGR-MEDIATED INHIBITION AND DISPERSAL OF BIOFILMS” (priority 2008, published 2011).
Ends that are not written are not given here.

Columns and labels:
extracellular proteases [1] = assay: Protease activity of AIP-I detached biofilm effluent with inhibitors or activators (Azocoll); type: biochemical, Staphylococcus aureus; details: EGTA 1 mM, PMSF 10 mM (method: 200 mM), DTT 1 mM
Protocol: (§1) Monitoring protease activity. Milk agar plates for detection of protease activity consisted of 3 g/L Tryptic Soy broth, 20 g/L non-fat dry milk, and 15 g/L agar. To determine relative protease activities of strains, assays were performed as described previously using the Azocoll (Calbiochem) reagent (Fournier et al., 2001). For measuring protease levels in biofilm effluents, 100 mL of effluent was collected on ice (about 12 hours) after AIP addition to the biofilm medium. Cells were removed from the effluents through centrifugation and filtering, and ammonium sulfate was added to 60% over one hour at 4° C. to concentrate proteins. The precipitated proteins were pelleted by centrifugation at 19,000 rpm for 30 min, and the pellet was washed and resuspended in 1 ml with 10 mM Tris pH 7.5. For the protease assay, the reaction mixture was supplemented with either 1 mM EGTA, 200 mM PMSF, or 1 mM DTT to gauge relative levels of protease classes.
There are 10 known extracellular proteases produced by most S. aureus strains and expression of all these enzymes is controlled by the agr system (Novick, 2003; Dunman et al., 2001; Ziebandt et al., 2004). These 10 proteases include the metalloprotease aureolysin (aur), two cysteine proteases (scpA and sspB), and seven serine proteases (sspA (V8) and sp1ABCDEF) (Dubin, 2002). To elucidate what class(es) of proteases are prevalent in AIP-treated biofilms, the effluent from a detaching biofilm was assayed for protease activity in the presence of protease inhibitors or activating agents.

S. aureus SH1000 biofilm = assay: Flow cell biofilm detachment (CLSM, COMSTAT biomass, effluent CFU); type: cell-based, Staphylococcus aureus; details: for biomass detached: day 2 vs day 4
Protocol: (§2) Biofilm experiments. Microtiter plate biofilms were performed as described (Shanks et al., 2005) except that the plates were incubated at 37° C. with shaking at 200 rpm for 12 hours. For flow cell experiments, AIPs were generated using the DnaB intein method, and the AIP concentrations were determined as previously described (Malone et al., 2007). AIPs stocks (20 mM) were stored in 100 mM phosphate (pH 7), 50 mM NaC1, 1 mM tris(2-carboxyethyl) phosphine (TCEP) and were diluted into the biofilm flow medium to a final concentration of 50 nM. When required, […] of erythromycin and/or chloramphenicol were added to the flow cell media to maintain plasmids. The growth medium for flow cell biofilms consisted of 2% TSB plus 0.2% glucose unless otherwise indicated. Flow cell biofilm experiments and confocal microscopy were performed as previously described (Yarwood et al., 2004). Flow cells were inoculated with overnight cultures diluted 1:100 in sterile water and laminar flow ([…]) was initiated after one hour incubation. Confocal microscopy was performed using a Radiance 2100 system (Biorad) with a Nikon Eclipse E600 microscope. Confocal images were processed using Velocity software (Improvision, Lexington, Mass.). Biofilm biomass was quantified with the COMSTAT program (Heydorn et al., 2000) and percent biomass detached was calculated by subtracting biomass present at day 4 from day 2. To quantitate the number of bacteria detaching from a biofilm, 1 ml of flow cell effluent was collected on ice at indicated time points. The collected effluent was vortexed and sonicated in a water bath for 10 minutes to break up clumps, and serial dilutions were plated on TSA plates to determine colony forming units (CFUs). For the Proteinase K detachment experiments, the enzyme (Sigma-Aldrich) was suspended in water and added to the media reservoir at a final concentration of 2 mg/ml.
AIP detaches S. aureus biofilms. To investigate the role of the agr system in established biofilms, the inventors developed strategies to modulate level of agr activity within a biofilm. Initially, media supplementation experiments were performed using purified AIP signal in order to place the agr system under external control. The inventors recently developed a new method for AIP biosynthesis (Malone et al., 2007), enabling the production of sufficient signal levels for flow cell experiments. Through exogenous AIP addition, they could test wild-type strains and avoid any potential complications of constructed agr deletion mutants. For this approach, established flow cell biofilms were prepared using S. aureus SH1000 constitutively expressing RFP with plasmid pAH9. The flow cell media was supplemented with glucose to attenuate agr expression (Regassa et al., 1992), allowing cell attachment and biofilmdevelopment. After two days, either 1 mL of buffer (100 mM phosphate [pH 7], 50 mMNaCl, 1 mMTCEP; FIG. 2A) or 1 mL of […] in buffer (FIG. 2B and Video S1) was diluted 1000-fold (50 nM final concentration) into the growth media. Using the inventors' synthesized AIP-I in dose-response curves (Malone et al., 2007), the inventors estimate the amount of AIP-I in supernatants of TSB broth cultures (OD600 1.0-1.3) reaches approximately 400 nM (data not shown), indicating the 50 nM level used for the biofilm experiments is within a relevant concentration range. […] To confirm that AIP-I caused detachment, the inventors counted viable S. aureus cells in the effluent media (FIG. 2C). […] In contrast, the number of bacteria in the biofilm effluent without AIP-I addition remained relatively constant.

[2] = system: S. aureus SH1000 biofilm and detached bacteria; assay: Susceptibility of biofilm and detached bacteria to rifampicin killing; type: cell-based, Staphylococcus aureus; details: six hours
Protocol: Antibiotic sensitivity. S. aureus biofilms were grown for two days in a flow chamber lined with removable polycarbonate coupons (Flow Cell FC271, Biosurface Technologies, Bozeman Mont.). Biofilm effluents were collected on ice about 24 hours after AIP-I addition. In parallel, coupons with biofilm growth were removed from flow cells not exposed to AIP-I. Both detached bacteria and the biofilms were exposed to the indicated levels of rifampicin for six hours. Subsequently, cells were vortexed, and the coupons were sonicated in a water bath to break up the biofilm or cell clumps. Serial dilutions were plated on TSA to determine surviving CFU's.
Detached S. aureus cells regain antibiotic sensitivity. Biofilm growth of S. aureus increases resistance to antimicrobials when compared to the planktonic growth mode (Fux et al., 2004; Yarwood et al., 2004). This Biofilm-mediated resistance hinders treatment of many chronic S. aureus biofilm related infections, including endocarditis, osteomyelitis, and indwelling medical device infections (Parsek and Singh, 2003; Costerton et al., 2003). Therefore, the inventors asked whether AIP-dispersed bacteria regained sensitivity to a clinically relevant antibiotic, rifampicin. To test this, the inventors collected detached cells from an AIP-treated biofilm effluent and compared resistance to intact biofilms exposed to different levels of rifampicin. […]

[3] = system: FRI1169 (agr Type I) biofilm; assay: Flow cell biofilm detachment, agr-I strain; type: cell-based, Staphylococcus aureus; details: 2-day old biofilm, 50 nM cognate AIP, over 48 hours
Protocol: as §2, with “Confocal microscopy was performed using a Radiance 2100 system (Biorad) with a Nikon Eclipse E600 microscope. Confocal images were processed using Velocity software (Improvision, Lexington, Mass.).” left out, “The collected effluent was vortexed and sonicated in a water bath for 10 minutes to break up clumps, and serial dilutions were plated on TSA plates to determine colony forming units (CFUs). For the Proteinase K detachment experiments, the enzyme (Sigma-Aldrich) was suspended in water and added to the media reservoir at a final concentration of 2 mg/ml.” left out

agr P3 promoter = assay: agr P3-GFP reporter (pDB59) expression in flow cell biofilms; type: cell-based, Staphylococcus aureus
Protocol: Strains and growth conditions. The bacterial strains and plasmids used in this study are described in Table 1. S. aureus or Escherichia coli were grown in tryptic soy broth (TSB) or on tryptic soy agar (TSA) with the appropriate antibiotics for plasmid selection or maintenance (erythromycin […]; chloramphenicol 10 μg/ml; tetracycline 5 μg/ml) and incubated at 37° C. Plasmid DNA was prepared from E. coli and transformed by electroporation into S. aureus RN4220 as described (Schenk and Laddaga, 1992). Plasmids were moved from RN4220 into other S. aureus strains by transduction with bacteriophage a80 (Novick, 1991) or by purifying the plasmid DNA and transformed by electroporation into appropriate strains. To move sspA and sp1ABCDEF mutations into appropriate genetic backgrounds, phage transduction with a80 was used as described (Novick, 1991). To construct the Daur mutation, the pKOR1-aur plasmid was used as described (Kavanaugh et al., 2007). Fluorescence measurements with S. aureus strains containing pDB59 were performed as previously described (Malone et al., 2007).
(§3) Biofilm experiments. Microtiter plate biofilms were performed as described (Shanks et al., 2005) except that the plates were incubated at 37° C. with shaking at 200 rpm for 12 hours. For flow cell experiments, AIPs were generated using the DnaB intein method, and the AIP concentrations were determined as previously described (Malone et al., 2007). AIPs stocks (20 mM) were stored in 100 mM phosphate (pH 7), 50 mM NaC1, 1 mM tris(2-carboxyethyl) phosphine (TCEP) and were diluted into the biofilm flow medium to a final concentration of 50 nM. When required, […] of erythromycin and/or chloramphenicol were added to the flow cell media to maintain plasmids. […] Biofilm biomass was quantified with the COMSTAT program (Heydorn et al., 2000) and percent biomass detached was calculated by subtracting biomass present at day 4 from day 2. To quantitate the number of bacteria detaching from a biofilm, 1 ml of flow cell effluent was collected on ice at indicated time points. […]

extracellular proteases [4] = assay: Protease activity in biofilm effluents after AIP addition (Azocoll); type: cell-based, Staphylococcus aureus; details: for protease activity in biofilm effluent relative to biofilm without AIP: wild-type SH1000 biofilm supplemented with AIP
Protocol: as §1
If S. aureus proteases have a role in detachment, proteinase K should be able to disperse an established biofilm. […] With this preliminary observation, the inventors measured the levels of protease activity in effluents from biofilms with and without AIP-I addition using Azocoll (azo dye-impregnated collagen) reagent. […] With the addition of activating AIP-I, the protease activity increased approximately five-fold compared to a biofilm with no AIP-I treatment.

[5] = system: SA502a (agr Type II) biofilm; assay: Flow cell biofilm detachment, agr-II strain; type: cell-based, Staphylococcus aureus; details: 2-day old biofilm, 50 nM cognate AIP, over 48 hours
Protocol: as §3, with “plasmids. The growth medium for flow cell biofilms consisted of 2% TSB plus 0.2% glucose unless otherwise indicated. Flow cell biofilm experiments and confocal microscopy were performed as previously described (Yarwood et al., 2004). Flow cells were inoculated with overnight cultures diluted 1:100 in sterile water and laminar flow ([…]) was initiated after one hour incubation.” for “plasmids.”

[6] = wild-type SH1000 2-day flow cell biofilm, 50 nM AIP in growth media
[7] = dual-labeled SH1000 (agr type I) biofilm, 50 nM AIP after two days of growth

O[C@@H](CS)[C@@H](O)CS [DTT]
effect on overall protease activity of effluent (extracellular proteases [1]): did not significantly change protease activity

O=C(O)CN(CCOCCOCCN(CC(=O)O)CC(=O)O)CC(=O)O [EGTA]
effect on overall protease activity of effluent (extracellular proteases [1]): negligible effect

O=S(=O)(F)Cc1ccccc1 [PMSF, reference compound]
effect on AIP-I mediated biofilm detachment (S. aureus SH1000 biofilm; 10 mM PMSF in combination with AIP-I versus AIP-I alone): significantly reduced the level of detachment
biomass detached (S. aureus SH1000 biofilm; wild-type biofilm, 10 mM PMSF in combination with 50 nM AIP-I): 48.8% (65.2)
effect on overall protease activity of effluent (extracellular proteases [1]): reduced overall protease activity to almost undetectable levels

CO[C@H]1/C=C/O[C@@]2(C)Oc3c(C)c(O)c4c(O)c(c(/C=N/N5CCN(C)CC5)c(O)c4c3C2=O)NC(=O)/C(C)=C\C=C\[C@H](C)[C@H](O)[C@@H](C)[C@@H](O)[C@@H](C)[C@H](OC(C)=O)[C@@H]1C [rifampicin]
decrease of viable cells ([2]; cells detached by AIP-I, 10 mg/ml rifampicin): 6 log
level of rifampicin killing of the biofilm biomass ([2]; intact biofilm, 100 mg/ml rifampicin): about 2 log units

AIP-I: autoinducing peptide YSTCDFIM (SEQ ID NO: 1), thiolactone bridge between C-terminal residue and internal cysteine (ester (positions not given here); not fully specified (bridges))
concentration of bacteria in the effluent (CFU/ml) (S. aureus SH1000 biofilm; 24-36 hours after AIP-I addition (50 nM), versus buffer): increased markedly
biofilm detachment observed by CLSM (S. aureus SH1000 biofilm; agr deletion mutant (SH1001) biofilm, AIP-I treatment): the mutant biofilm did not disperse
biofilm detachment observed by CLSM (S. aureus SH1000 biofilm; [6]): sloughed off the flow cell over a period of 1-2 days
biomass dispersed / detached (S. aureus SH1000 biofilm; wild-type SH1000, 50 nM AIP-I added to 2-day biofilm, within 48 hrs (day 2 vs day 4), COMSTAT): 91.3 (64.3) %
biomass detached (S. aureus SH1000 biofilm; Δaur mutant biofilm, 50 nM AIP-I): 54.6% (68.1)
biomass detached (S. aureus SH1000 biofilm; Δaur Δspl double mutant biofilm, 50 nM AIP-I): 21.7% (66.6)
biofilm detachment observed by CLSM [3]: robust detachment
induction of agr P3-GFP reporter (agr P3 promoter; agr deletion mutant (SH1001) biofilm with dual reporters, AIP-I): lack of GFP induction
induction of agr P3-GFP reporter (agr P3 promoter; [7]): strong induction of the GFP reporter
protease activity in biofilm effluent (extracellular proteases [4]; agr mutant (SH1001) biofilm supplemented with AIP-I): very low levels of extracellular proteases
protease activity in biofilm effluent relative to biofilm without AIP (extracellular proteases [4]): approximately five-fold

AIP-II: autoinducing peptide GVNACSSLF (SEQ ID NO: 2), thiolactone bridge between C-terminal residue and internal cysteine (ester (positions not given here); not fully specified (bridges))
biofilm detachment observed by CLSM (S. aureus SH1000 biofilm; [6]): the biofilm did not disperse
biofilm detachment observed by CLSM [5]: robust detachment
induction of agr P3-GFP reporter (agr P3 promoter; [7]): failed to induce GFP expression
protease activity in biofilm effluent relative to biofilm without AIP (extracellular proteases [4]): reduced the level of proteolytic activity
